Results as given in US8063210B2, “Process and intermediate” (AstraZeneca AB, priority 2006, dated 2011).

Assays:
[1] = system: human colorectal (SW620, HCT116, Colo205) and lung (A549, Calu-6) tumour xenografts; experiment: tumour growth inhibition in human tumour xenografts; type: in vivo; conditions: panel of human colorectal (SW620, HCT116, Colo205) and lung (A549, Calu-6) tumour xenografts; with statistical significance
[2] = pro-drug conversion to the active moiety in human plasma; type: in vitro ADME

conversion of pro-drug to active moiety AZD1152 HQPA [2]: rapidly and completely converted
Compound: CCN(CCCOc1ccc2c(Nc3cc(CC(=O)Nc4cccc(F)c4)n[nH]3)ncnc2c1)CCOP(=O)(O)O [AZD1152, 2-{ethyl[3-({4-[(5-{2-[(3-fluorophenyl)amino]-2-oxoethyl}-1H-pyrazol-3-yl)amino]quinazolin-7-yl}oxy)propyl]amino}ethyl dihydrogen phosphate]
inhibition of tumour growth [1]: inhibit tumour growth
